Experiments:
[1] = molecular target: T1, Human immunodeficiency virus type 1 integrase (Human immunodeficiency virus 1, UniProt Q7ZJM1); assay: Inhibition of HIV1 integrase-mediated integration activity
[2] = system: Human immunodeficiency virus 1; assay: Antiviral activity against HIV1 by focal infectivity assay; type: functional, organism-based
[3] = molecular target: T1, Human immunodeficiency virus type 1 integrase; assay: Inhibition of HIV1 integrase-mediated 3'-processing activity
[4] = Cytotoxicity against HeLa H1-JC.37 cells by MTS assay; type: cell-based; conditions: Homo sapiens
[5] = Selectivity ratio of EC50 for HIV1 to IC50 for HeLa H1-JC.37 cells; type: functional

T1 sequence (Q7ZJM1 whole entry): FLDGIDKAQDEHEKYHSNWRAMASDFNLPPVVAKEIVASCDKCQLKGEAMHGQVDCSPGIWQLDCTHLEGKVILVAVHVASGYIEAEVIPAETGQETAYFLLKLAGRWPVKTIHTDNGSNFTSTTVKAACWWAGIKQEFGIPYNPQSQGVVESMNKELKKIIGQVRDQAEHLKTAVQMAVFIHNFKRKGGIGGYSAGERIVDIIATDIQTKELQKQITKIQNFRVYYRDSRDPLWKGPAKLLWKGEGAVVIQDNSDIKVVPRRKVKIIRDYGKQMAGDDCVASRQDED

IC50 [1]	EC50 [2]	IC50 [3]	Structure (SMILES)	IC50 [4]	Ratio IC50/EC50 [5]
> 100 µM	> 10 µM	> 100 µM	O=S(=O)(/C=C/c1ccccc1OCc1ccccc1)CS(=O)(=O)/C=C/c1ccccc1OCc1ccccc1		
17 µM	6.2 µM	40 µM	O=S(=O)(CCc1ccc(O)c(O)c1)CS(=O)(=O)CCc1ccc(O)c(O)c1	170 µM	27
33 µM	> 10 µM	33 µM	O=C(O)c1ccc(/C=C/S(=O)(=O)CS(=O)(=O)/C=C/c2ccc(C(=O)O)cc2)cc1		
> 1000 µM	> 10 µM	> 1000 µM	COc1cc(OC)c(OC)cc1/C=C/S(=O)(=O)CS(=O)(=O)/C=C/c1cc(OC)c(OC)cc1OC		
> 100 µM	> 10 µM	> 100 µM	O=S(=O)(/C=C/c1ccc(OCc2ccccc2)c(OCc2ccccc2)c1)CS(=O)(=O)/C=C/c1ccc(OCc2ccccc2)c(OCc2ccccc2)c1		
> 100 µM	> 10 µM	> 100 µM	COc1ccc(Br)cc1/C=C/S(=O)(=O)CS(=O)(=O)/C=C/c1cc(Br)ccc1OC		

Second part, the compound before the results:

Structure (SMILES)	IC50 [1]	EC50 [2]	IC50 [3]	IC50 [4]	Ratio IC50/EC50 [5]
COc1cc(Br)c(/C=C/S(=O)(=O)CS(=O)(=O)/C=C/c2cc(OC)c(OC)cc2Br)cc1OC	500 µM	> 10 µM	850 µM		
O=S(=O)(CCc1ccccc1)CS(=O)(=O)CCc1ccccc1	> 100 µM	> 10 µM	> 100 µM	> 150 µM	
O=S(=O)(/C=C/c1cc(F)c(F)c(F)c1)CS(=O)(=O)/C=C/c1cc(F)c(F)c(F)c1	> 100 µM	2 µM	> 100 µM	7.8 µM	3.9
O=S(=O)(/C=C/c1cccc(Br)n1)CS(=O)(=O)/C=C/c1cccc(Br)n1	900 µM	> 10 µM	> 1000 µM		
O=S(=O)(/C=C/c1cc(OCc2ccccc2)c(OCc2ccccc2)c(OCc2ccccc2)c1)CS(=O)(=O)/C=C/c1cc(OCc2ccccc2)c(OCc2ccccc2)c(OCc2ccccc2)c1	> 100 µM	> 10 µM	> 100 µM		
O=S(=O)(CCc1cc(F)c(F)c(F)c1)CS(=O)(=O)CCc1cc(F)c(F)c(F)c1	333 µM	> 10 µM	900 µM	110 µM	
COc1cc(/C=C/S(=O)(=O)CS(=O)(=O)/C=C/c2cc(OC)c(OC)cc2[N+](=O)[O-])c([N+](=O)[O-])cc1OC	500 µM	> 10 µM	500 µM		
COc1cc(/C=C/S(=O)(=O)CS(=O)(=O)/C=C/c2cc(Br)c(OC)c(OC)c2)cc(Br)c1OC	> 100 µM	> 10 µM	> 100 µM		
O=S(=O)(/C=C/c1ccccc1)CS(=O)(=O)/C=C/c1ccccc1	> 100 µM	1.2 µM	> 100 µM	12 µM	9.9
O=S(=O)(/C=C/c1ccc2c(c1)OCCO2)CS(=O)(=O)/C=C/c1ccc2c(c1)OCCO2	> 100 µM	> 10 µM	> 100 µM		
O=S(=O)(/C=C/c1cc(Cl)ccc1Cl)CS(=O)(=O)/C=C/c1cc(Cl)ccc1Cl	> 100 µM	3.4 µM	> 100 µM	2.6 µM	0.77
O=S(=O)(/C=C/c1ccc2[nH]ccc2c1)CS(=O)(=O)/C=C/c1ccc2[nH]ccc2c1	95 µM	> 10 µM	> 100 µM		
